Active and inactive are the calls of the source.
Experiments:
[1] = target: Ras and Rab interactor 1/Tyrosine-protein kinase ABL1 (Homo sapiens, UniProt P00519+Q13671); type: functional;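 note: biochemical TR-FRET dose-response test measuring inhibition of binding between Rin1 and Abl proteins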
[2] = target: T1, Carboxy-terminal domain RNA polymerase II polypeptide A small phosphatase 1 (Homo sapiens, UniProt Q9GZU7); test: inhibitors of CTDSP1, concentration-response testing, biochemical assay, absorbance-based, actives from ultra-high-throughput screening (AID 540297); type: functional
T1 sequence (Q9GZU7 whole entry): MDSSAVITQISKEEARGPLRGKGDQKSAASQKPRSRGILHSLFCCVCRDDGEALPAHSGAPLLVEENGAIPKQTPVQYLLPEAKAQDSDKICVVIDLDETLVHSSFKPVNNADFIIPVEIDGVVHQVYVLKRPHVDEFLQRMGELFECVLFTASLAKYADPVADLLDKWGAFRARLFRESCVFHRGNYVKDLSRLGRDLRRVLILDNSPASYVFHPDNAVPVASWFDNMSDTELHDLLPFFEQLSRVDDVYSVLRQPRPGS

[3] = target: Nonstructural protein 1 (Influenza A virus, UniProt Q194T2); type: functional, Influenza A virus (A/California/07/2009(H1N1))
[4] = inhibitors of intracellular T. cruzi replication, confirmation, NIH3T3 host cells, beta-gal luminescence (AID 2044); type: functional, cell-based;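 note: intracellular parasites grown in NIH/3T3 mouse fibroblasts as host cells; luminescent beta-galactosidase reporter signal from transgenic T. cruzi replicating inside host cells; inhibitors lower the luminescence signal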
[5] = system: Streptococcus; test: Group A Streptococcus viability loss, dose response, counter-screen for streptokinase expression inhibitor project, luminescence, BacTiterGlo (AID 1915); type: functional, organism-based;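 note: potency for reduction of bacterial viability or growth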
[6] = system: Streptococcus sp. 'group A'; test: growth inhibition of control SK(-) GAS strain, dose response, counter-screen for streptokinase expression inhibitor project, luminescence, kanamycin, BacTiterGlo, confirmation (AID 1900); type: functional, organism-based
[7] = target: T2, Replicative DNA helicase DnaB (Mycobacterium tuberculosis, UniProt P9WMR3); test: DnaB intein splicing inhibitors, dose response, biochemical, cell-free fluorescence (AID 449749); type: functional
T2 sequence (P9WMR3 whole entry): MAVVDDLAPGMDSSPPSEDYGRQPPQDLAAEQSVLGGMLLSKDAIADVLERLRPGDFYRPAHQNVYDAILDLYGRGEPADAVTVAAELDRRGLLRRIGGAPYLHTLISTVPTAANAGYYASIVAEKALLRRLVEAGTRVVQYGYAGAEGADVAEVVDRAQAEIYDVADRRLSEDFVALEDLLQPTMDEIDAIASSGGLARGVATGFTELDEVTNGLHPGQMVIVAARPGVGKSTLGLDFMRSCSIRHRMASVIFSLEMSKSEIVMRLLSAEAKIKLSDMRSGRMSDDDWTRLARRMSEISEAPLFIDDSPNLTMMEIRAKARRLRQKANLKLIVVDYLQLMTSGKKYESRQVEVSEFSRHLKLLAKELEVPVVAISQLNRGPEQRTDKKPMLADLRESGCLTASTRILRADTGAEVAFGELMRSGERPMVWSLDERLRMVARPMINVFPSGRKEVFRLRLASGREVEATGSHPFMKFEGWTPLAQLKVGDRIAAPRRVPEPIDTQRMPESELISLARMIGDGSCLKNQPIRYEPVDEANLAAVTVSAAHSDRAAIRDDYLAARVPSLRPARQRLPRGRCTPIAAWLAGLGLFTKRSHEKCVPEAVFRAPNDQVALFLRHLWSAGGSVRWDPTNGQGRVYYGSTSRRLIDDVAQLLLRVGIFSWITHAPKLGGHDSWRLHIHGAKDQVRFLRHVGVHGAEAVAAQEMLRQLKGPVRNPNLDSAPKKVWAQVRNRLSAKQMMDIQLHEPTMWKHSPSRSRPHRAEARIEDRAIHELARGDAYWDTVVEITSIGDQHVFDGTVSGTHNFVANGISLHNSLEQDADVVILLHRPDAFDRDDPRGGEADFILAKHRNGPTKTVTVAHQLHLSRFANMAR

[8] = cytotoxicity toward NIH3T3 fibroblasts, dose response, counter-screen, cell-based, ATP luminescence, mouse fibroblasts (AID 2010); type: functional;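 note: cells exposed to compound for about 90 hours before reading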
[9] = target: T3, Streptokinase A (Streptococcus pyogenes serotype M1, UniProt P10520); test: S. pyogenes streptokinase expression inhibitors, potency, dose response, plasminogen activation absorbance, OD405 (AID 1914); type: functional, Streptococcus pyogenes M1 GAS;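 note: secreted streptokinase activity via plasminogen activation per viability signal from cell pellet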
T3 sequence (P10520 whole entry): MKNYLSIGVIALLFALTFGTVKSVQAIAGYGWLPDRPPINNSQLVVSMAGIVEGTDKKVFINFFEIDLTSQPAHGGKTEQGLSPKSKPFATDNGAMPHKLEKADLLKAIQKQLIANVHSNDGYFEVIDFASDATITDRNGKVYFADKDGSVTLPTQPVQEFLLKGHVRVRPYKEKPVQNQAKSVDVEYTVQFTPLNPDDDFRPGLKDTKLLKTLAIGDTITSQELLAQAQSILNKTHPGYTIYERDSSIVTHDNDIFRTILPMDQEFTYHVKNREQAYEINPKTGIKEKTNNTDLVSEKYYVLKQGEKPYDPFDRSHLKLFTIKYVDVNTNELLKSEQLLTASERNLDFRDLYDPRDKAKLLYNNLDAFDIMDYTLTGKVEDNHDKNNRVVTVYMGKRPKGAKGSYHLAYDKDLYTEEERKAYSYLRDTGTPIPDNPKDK

[10] = target: T4, Protein RecA (Mycobacterium tuberculosis, UniProt P9WHJ3); test: Fluorescence Cell-Free Homogeneous Dose Retest to Identify Inhibitors of RecA-Intein Splicing Activity. [Related pubchem assays (depositor defined):AID2097, AID2223, AID489010, AID492950]; type: functional
T4 sequence (P9WHJ3 whole entry): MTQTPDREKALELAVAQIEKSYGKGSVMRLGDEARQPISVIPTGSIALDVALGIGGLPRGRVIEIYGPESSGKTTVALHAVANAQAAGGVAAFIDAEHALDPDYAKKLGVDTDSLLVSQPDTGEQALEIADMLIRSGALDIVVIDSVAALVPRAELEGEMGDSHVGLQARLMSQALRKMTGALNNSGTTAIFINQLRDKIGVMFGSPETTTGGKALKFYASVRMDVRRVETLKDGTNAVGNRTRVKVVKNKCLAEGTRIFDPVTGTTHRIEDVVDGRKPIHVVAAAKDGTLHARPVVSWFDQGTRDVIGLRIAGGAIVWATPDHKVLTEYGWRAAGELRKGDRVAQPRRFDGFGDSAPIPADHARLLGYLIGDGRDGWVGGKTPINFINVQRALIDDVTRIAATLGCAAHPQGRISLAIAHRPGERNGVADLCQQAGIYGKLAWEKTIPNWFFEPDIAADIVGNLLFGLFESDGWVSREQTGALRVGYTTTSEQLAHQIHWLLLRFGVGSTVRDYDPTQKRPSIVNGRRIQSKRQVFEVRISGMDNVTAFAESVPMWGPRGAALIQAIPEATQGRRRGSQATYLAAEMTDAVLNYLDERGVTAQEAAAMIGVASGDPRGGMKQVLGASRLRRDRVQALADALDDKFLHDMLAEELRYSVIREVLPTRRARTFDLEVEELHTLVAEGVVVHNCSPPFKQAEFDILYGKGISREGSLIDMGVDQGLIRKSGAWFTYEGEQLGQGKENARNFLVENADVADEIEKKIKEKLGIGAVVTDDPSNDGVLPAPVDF

[11] = intracellular Trypanosoma cruzi inhibitors in host cells – cell-based, plate reader, cherry-pick samples, set 3, dose response (AID 651818); type: functional;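 note: compounds incubated with infected cells for about four days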
[12] = Shn3 3'UTR reporter inhibitors, dose response, cell-based, Clone20 osteoblasts, firefly luciferase, cherry-picked (AID 624132); type: functional;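 note: firefly luciferase luminescence from reporter carrying the Shn3 3'UTR in osteoblasts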
[13] = control 3'UTR Renilla luciferase suppression, dose response, counter-screen for Shn3 inhibitor project, cell-based, Clone20-Shn3RL, cherry-picked (AID 624133); type: functional
[14] = system: INS1; test: beta cell apoptosis inhibitors, cytokine rescue, dose response, luminescence, retest (AID 449756); type: functional, cell-based; conditions: Rattus norvegicus;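 note: cell death triggered by IL-1 beta plus TNF-alpha plus IFN-gamma mixture; protective hits raise ATP signal compared with cytokine alone wells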
[15] = target: T5, Rac GTPase-activating protein 1 (Homo sapiens, UniProt Q9H0H5); test: MgcRacGAP GTPase-activating activity inhibitors, confirmation, biochemical, ADP Hunter fluorescence, primary and confirmatory (AID 624330); type: functional
T5 sequence (Q9H0H5 whole entry): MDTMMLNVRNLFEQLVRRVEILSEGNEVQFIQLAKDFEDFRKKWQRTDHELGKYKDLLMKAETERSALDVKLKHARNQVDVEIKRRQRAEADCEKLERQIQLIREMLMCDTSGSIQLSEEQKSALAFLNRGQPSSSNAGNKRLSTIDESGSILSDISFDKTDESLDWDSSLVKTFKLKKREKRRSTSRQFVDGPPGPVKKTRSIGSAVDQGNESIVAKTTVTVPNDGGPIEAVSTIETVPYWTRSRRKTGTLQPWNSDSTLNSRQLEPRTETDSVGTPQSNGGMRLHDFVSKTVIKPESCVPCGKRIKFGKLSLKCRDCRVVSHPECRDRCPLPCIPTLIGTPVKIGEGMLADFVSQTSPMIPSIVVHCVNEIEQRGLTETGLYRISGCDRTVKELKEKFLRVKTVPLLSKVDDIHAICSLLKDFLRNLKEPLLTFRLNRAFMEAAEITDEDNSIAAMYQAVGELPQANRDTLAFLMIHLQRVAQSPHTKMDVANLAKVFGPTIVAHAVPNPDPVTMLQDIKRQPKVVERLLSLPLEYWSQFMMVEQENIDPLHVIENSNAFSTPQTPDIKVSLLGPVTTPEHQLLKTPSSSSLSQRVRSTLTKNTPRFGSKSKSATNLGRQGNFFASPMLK

[16] = cells; type: functional, cell-based
[17] = cells; type: functional, cell-based; remark: listed apart in the source
[18] = inhibitors of clade B AD8 Env fusion, dose response, cell-based, cherry-pick (AID 652062); type: functional;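 note: luciferase signal from cell-cell fusion driven by HIV-1 clade B AD8 Env; potency is for inhibitors of fusion seen as a drop in luminescence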
[19] = inhibitors of HIV Env-driven cell fusion, dose response, cherry-pick (AID 652057); type: functional, cell-based
[20] = ZM109 Env clade C HIV-1 fusion inhibitors, dose response, HeLa effector, CEM target cells, luciferase, cherry-pick (AID 652058); type: functional, cell-based
[21] = system: P388/ADR; test: cells; type: functional; conditions: Mus musculus
[22] = system: SN12K1; test: cells; type: functional; conditions: Homo sapiens

Chain of Ras and Rab interactor 1/Tyrosine-protein kinase ABL1 (P00519 whole entry, the tested form may be a part): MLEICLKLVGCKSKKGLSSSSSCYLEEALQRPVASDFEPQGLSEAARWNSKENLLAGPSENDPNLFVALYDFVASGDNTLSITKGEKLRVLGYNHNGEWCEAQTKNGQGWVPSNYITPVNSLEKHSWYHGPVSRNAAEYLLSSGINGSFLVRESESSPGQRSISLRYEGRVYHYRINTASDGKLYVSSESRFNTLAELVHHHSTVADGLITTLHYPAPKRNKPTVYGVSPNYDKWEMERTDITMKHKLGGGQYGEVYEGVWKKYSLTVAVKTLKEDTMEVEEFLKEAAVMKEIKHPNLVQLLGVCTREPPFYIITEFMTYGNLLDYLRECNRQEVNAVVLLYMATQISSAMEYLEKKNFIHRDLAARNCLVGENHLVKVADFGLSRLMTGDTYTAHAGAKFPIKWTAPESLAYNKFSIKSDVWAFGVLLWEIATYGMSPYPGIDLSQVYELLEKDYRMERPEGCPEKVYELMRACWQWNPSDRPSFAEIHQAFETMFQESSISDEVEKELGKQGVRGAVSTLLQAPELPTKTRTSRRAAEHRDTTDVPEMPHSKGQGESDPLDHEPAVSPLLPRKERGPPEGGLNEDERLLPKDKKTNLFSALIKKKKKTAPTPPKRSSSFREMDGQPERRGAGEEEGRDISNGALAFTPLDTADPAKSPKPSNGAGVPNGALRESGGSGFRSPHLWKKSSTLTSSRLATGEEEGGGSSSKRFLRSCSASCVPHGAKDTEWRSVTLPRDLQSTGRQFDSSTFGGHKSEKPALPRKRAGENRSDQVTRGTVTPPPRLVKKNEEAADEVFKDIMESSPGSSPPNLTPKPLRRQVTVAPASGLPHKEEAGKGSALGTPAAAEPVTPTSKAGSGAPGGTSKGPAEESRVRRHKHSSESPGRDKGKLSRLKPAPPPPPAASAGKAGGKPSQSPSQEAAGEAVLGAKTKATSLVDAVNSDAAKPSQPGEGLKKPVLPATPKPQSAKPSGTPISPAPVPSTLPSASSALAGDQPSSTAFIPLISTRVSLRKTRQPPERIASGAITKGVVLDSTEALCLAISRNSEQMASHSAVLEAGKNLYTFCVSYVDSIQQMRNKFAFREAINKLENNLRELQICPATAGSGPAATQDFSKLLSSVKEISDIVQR
Chain of Ras and Rab interactor 1/Tyrosine-protein kinase ABL1 (Q13671 whole entry, the tested form may be a part): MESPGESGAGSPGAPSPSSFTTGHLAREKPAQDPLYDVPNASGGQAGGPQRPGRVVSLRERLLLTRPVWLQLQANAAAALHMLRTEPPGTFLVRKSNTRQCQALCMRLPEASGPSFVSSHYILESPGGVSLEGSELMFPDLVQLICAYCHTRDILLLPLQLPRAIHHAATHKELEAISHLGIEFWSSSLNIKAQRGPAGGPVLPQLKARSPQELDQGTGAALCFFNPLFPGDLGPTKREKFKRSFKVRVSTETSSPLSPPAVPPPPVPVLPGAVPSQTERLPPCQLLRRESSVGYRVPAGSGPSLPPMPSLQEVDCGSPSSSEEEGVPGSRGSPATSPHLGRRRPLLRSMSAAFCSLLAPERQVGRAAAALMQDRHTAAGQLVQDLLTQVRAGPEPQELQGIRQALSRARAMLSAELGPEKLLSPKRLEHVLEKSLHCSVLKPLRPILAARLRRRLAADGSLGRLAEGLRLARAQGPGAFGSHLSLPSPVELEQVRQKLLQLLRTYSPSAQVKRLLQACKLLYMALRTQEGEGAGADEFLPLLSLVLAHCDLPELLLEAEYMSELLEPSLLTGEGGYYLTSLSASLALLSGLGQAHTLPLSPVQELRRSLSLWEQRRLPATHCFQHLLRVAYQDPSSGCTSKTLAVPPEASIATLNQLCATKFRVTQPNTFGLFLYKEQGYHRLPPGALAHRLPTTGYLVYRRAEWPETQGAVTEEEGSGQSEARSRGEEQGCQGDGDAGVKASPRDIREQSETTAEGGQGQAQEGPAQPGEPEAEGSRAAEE
Chain of Nonstructural protein 1 (Q194T2 whole entry): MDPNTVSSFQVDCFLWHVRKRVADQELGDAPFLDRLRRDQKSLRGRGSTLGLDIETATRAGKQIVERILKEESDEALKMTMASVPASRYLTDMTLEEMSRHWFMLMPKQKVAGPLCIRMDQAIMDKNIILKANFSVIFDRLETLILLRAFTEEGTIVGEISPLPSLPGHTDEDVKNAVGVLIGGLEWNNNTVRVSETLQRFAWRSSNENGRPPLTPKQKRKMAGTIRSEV

Structure (SMILES): O=C1N(c2cccc(Cl)c2)C(c2ccc(Cl)cc2)N2CCCN12 (stereo not drawn)
- IC50 [1]: 31.8 µM (inactive)

Structure (SMILES): CC(=O)Nc1ccc(S(=O)(=O)NC2=NC(=O)/C(=C\c3ccco3)S2)cc1
- IC50 [2]: 7.44 µM (active)

Structure (SMILES): CCOC(=O)C1=C(C)n2c(s/c(=C/c3cccc([N+](=O)[O-])c3)c2=O)=NC1c1ccc(O)c(OC)c1 (stereo not drawn)
- IC50 [3]: > 100 µM (active)
- EC50 [4]: 1.11 µM (active)
- EC50 [5]: > 150 µM (not active)
- EC50 [6]: 8.14 µM (active)
- AC50 [7]: 13.1 µM (active)
- EC50 [8]: > 60 µM (not active)
- EC50 [9]: 48.8 µM (active)
- EC50 [10]: 1.29 µM (active)

Structure (SMILES): CCN(CC)c1ccc(/C=N/NC(=O)CCCCCCC(=O)Nc2ccccc2O)c(O)c1
- AC50 [11]: 1.94 µM (active)

Structure (SMILES): C[C@@H]1CCCCO[C@@H](CN(C)C(=O)Nc2ccc(C(F)(F)F)cc2)[C@@H](C)CN([C@H](C)CO)C(=O)c2cc(NC(=O)NC3CCCCC3)ccc2O1
- AC50 [11]: 5.12 µM (active)

Structure (SMILES): COCCn1c(SCC(=O)/C=C2\N(C)c3ccccc3C2(C)C)nnc1-c1ccncc1
- AC50 [12]: 2.65 µM (active)
- AC50 [13]: 5.61 µM (active)
- AC50 [14]: 6.34 µM (active)

Structure (SMILES): COC(=O)c1c(C)nc(C)c2c(=O)oc3ccccc3c12
- IC50 [1]: > 73.5 µM (inactive)

Structure (SMILES): C[C@H](CO)N1C[C@H](C)[C@H](CN(C)Cc2ccc(-c3ccccc3)cc2)Oc2ccc(NC(=O)CCCCCC(=O)Nc3ccccc3N)cc2CC1=O
- AC50 [11]: 3.39 µM (active)

Structure (SMILES): NC(=O)C(CC(=O)O)NC(=O)[C@@H]1CCCNc2c(I)cc([N+](=O)[O-])cc2C(=O)N[C@@H](CO)C(=O)N[C@@H](Cc2ccc(O)cc2)C(=O)N1 (stereo partly drawn)
- IC50 [2]: 19.7 µM (active)

Structure (SMILES): C[C@H](CO)N1C[C@H](C)[C@H](CN(C)C(=O)Nc2ccccc2)Oc2c(NC(=O)c3ccncc3)cccc2C1=O
- AC50 [11]: 2.12 µM (active)

Structure (SMILES): O=C(CNCc1ccccn1)N1CCc2ccccc2C1
- IC50 [3]: 3.54 µM (active)
- IC50 [15]: 177 µM (active)

Structure (SMILES): Cc1ccc(CNC(=O)NC2CCCCC2)cc1
- EC50 [16]: > 350 µM (not active)
- EC50 [17]: 55 µM (active)

Structure (SMILES): O=C(COC(=O)c1cccc(S(=O)(=O)N2CCN(c3ccccc3)CC2)c1)NCc1ccco1
- IC50 [2]: 4.41 µM (active)

Structure (SMILES): O=C(Cc1ccc(S(=O)(=O)N2CCOCC2)s1)NC1CCCCC1
- IC50 [2]: 7.34 µM (active)

Structure (SMILES): COc1ccc2nc(NC(=O)CCc3nc(C4=CCN(C)CC4)no3)sc2c1
- IC50 [1]: 1.4 µM (active)

Structure (SMILES): C[C@H](CO)N1C[C@H](C)[C@H](CN(C)S(=O)(=O)c2ccccc2)Oc2ccc(NC(=O)Cc3cn(C)c4ccccc34)cc2CC1=O
- AC50 [18]: 12 µM (active)
- AC50 [19]: < 0.26 µM (active)
- AC50 [20]: 0.816 µM (active)

Structure (SMILES): CCOc1ccc(-c2c(C(=O)N/N=C/c3cccnc3)nnn2-c2nonc2N)cc1
- EC50 [16]: > 350 µM (not active)
- EC50 [17]: > 350 µM (not active)

Structure (SMILES): COc1ccc2ccccc2c1/C=N/Nc1cccc(C(=O)O)c1
- EC50 [16]: > 350 µM (not active)
- EC50 [17]: 16.8 µM (active)

Structure (SMILES): O=C1N(c2cccc(Cl)c2)C(c2ccccc2)N2CCCN12 (stereo not drawn)
- IC50 [1]: 22.2 µM (inactive)

Structure (SMILES): CN(CCc1ccccc1)C(=O)c1ccc(NC(=O)Cc2ccc(NC(=O)C3CCN(C(=O)c4ccccc4)CC3)cc2)cc1
- IC50 [1]: 3.91 µM (active)

Structure (SMILES): Cc1ccc(Cl)cc1N1CCN(C(=O)CSc2ccsc2[N+](=O)[O-])CC1
- IC50 [2]: 6.96 µM (active)

Structure (SMILES): O=C1C=C[C@@H](COC2OC(CO)C(O)C(O)C2O)O1 (stereo partly drawn)
- GI50 [21]: 0.343 µM (active)
- GI50 [22]: 13.2 µM (inactive)

From ChEMBL document CHEMBL1201862, “PubChem BioAssay data set” (2004)
